# Results: PubChem BioAssay AID180 (DTP/NCI, 2004)
# Where “and” joins values, the source holds several entries; their conditions need not be identical. Identical values can stand only once.
# Test system: BDF1 mice, Adenocarcinoma 755 s.c., tumor weight T/C
# Experiment: NCI In Vivo Anticancer Drug Screen. Data for tumor model Adenocarcinoma 755 (subcutaneous) in B6D2F1 (BDF1) mice
# Details: endpoint: mean tumor weight, higher = larger tumour
# Procedure, shortened: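 Values express treated (T) relative to vehicle-dosed control (C) animals, based on survival or tumour size measured after compound treatment of mice bearing a transplanted tumour.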
# [1] = dose: 2.5 mg/kg/injection, schedule: Q01DX011 (ip), vehicle: carboxymethylcellulose (CMC)
# [2] = dose: 5.0 mg/kg/injection, schedule: Q01DX011 (ip), vehicle: carboxymethylcellulose (CMC)
# [3] = dose: 15.0 mg/kg/injection, schedule: Q01DX011 (ip), vehicle: carboxymethylcellulose (CMC)
# [4] = dose: 7.5 mg/kg/injection, schedule: Q01DX011 (ip), vehicle: carboxymethylcellulose (CMC)
# [5] = dose: 10.0 mg/kg/injection, schedule: Q01DX011 (ip), vehicle: carboxymethylcellulose (CMC)
# [6] = dose: 50.0 mg/kg/injection, schedule: Q01DX011 (ip), vehicle: carboxymethylcellulose (CMC)
# [7] = dose: 100.0 mg/kg/injection, schedule: Q01DX011 (ip), vehicle: carboxymethylcellulose (CMC)
smiles,measurement,setting,value
CSc1nc(N)nc2nc[nH]c12,T/C,"dose: 0.6 mg/kg/injection, schedule: Q01DX011 (ip), vehicle: carboxymethylcellulose (CMC)",51 % of control
same,T/C,"dose: 1.25 mg/kg/injection, schedule: Q01DX011 (ip), vehicle: carboxymethylcellulose (CMC)",55 % of control
same,T/C,[1],75 % of control
same,T/C,[2],28 % of control
same,T/C,[3],1 % of control
Clc1ncnc2nc[nH]c12,T/C,"dose: 1.87 mg/kg/injection, schedule: Q01DX006 (iv), vehicle: carboxymethylcellulose (CMC)",96 % of control
same,T/C,"dose: 1.87 mg/kg/injection, schedule: Q01DX011 (im), vehicle: carboxymethylcellulose (CMC)",47 % of control
same,T/C,"dose: 1.87 mg/kg/injection, schedule: Q01DX011 (ip), vehicle: carboxymethylcellulose (CMC)",83 % of control
same,T/C,"dose: 1.87 mg/kg/injection, schedule: Q01DX011 (sc), vehicle: carboxymethylcellulose (CMC)",103 % of control
same,T/C,[1],66 % of control
same,T/C,"dose: 3.12 mg/kg/injection, schedule: Q01DX011 (oral), vehicle: carboxymethylcellulose (CMC)",110 % of control
same,T/C,"dose: 3.12 mg/kg/injection, schedule: Q#A X022 (ip), vehicle: carboxymethylcellulose (CMC)",48 % of control
same,T/C,"dose: 3.75 mg/kg/injection, schedule: Q01DX006 (iv), vehicle: carboxymethylcellulose (CMC)",94 % of control
same,T/C,"dose: 3.75 mg/kg/injection, schedule: Q01DX011 (im), vehicle: carboxymethylcellulose (CMC)",83 % of control
same,T/C,"dose: 3.75 mg/kg/injection, schedule: Q01DX011 (ip), vehicle: carboxymethylcellulose (CMC)",62 % of control
same,T/C,"dose: 3.75 mg/kg/injection, schedule: Q01DX011 (sc), vehicle: carboxymethylcellulose (CMC)",76 % of control
same,T/C,[2],36 % of control and 58 % of control
same,T/C,"dose: 5.0 mg/kg/injection, schedule: Q03DX004 (ip), vehicle: carboxymethylcellulose (CMC)",81 % of control
same,T/C,"dose: 6.25 mg/kg/injection, schedule: Q01DX011 (oral), vehicle: carboxymethylcellulose (CMC)",55 % of control
same,T/C,"dose: 6.25 mg/kg/injection, schedule: Q#A X022 (ip), vehicle: carboxymethylcellulose (CMC)",41 % of control
same,T/C,"dose: 7.5 mg/kg/injection, schedule: Q01DX006 (iv), vehicle: carboxymethylcellulose (CMC)",82 % of control
same,T/C,"dose: 7.5 mg/kg/injection, schedule: Q01DX011 (im), vehicle: carboxymethylcellulose (CMC)",22 % of control
same,T/C,[4],34 % of control
same,T/C,"dose: 7.5 mg/kg/injection, schedule: Q01DX011 (sc), vehicle: carboxymethylcellulose (CMC)",28 % of control
same,T/C,[5],27 % of control
same,T/C,"dose: 10.0 mg/kg/injection, schedule: Q01DX011 (ip), vehicle: methylcellulose (MC)",44 % of control
same,T/C,"dose: 10.0 mg/kg/injection, schedule: Q03DX004 (ip), vehicle: carboxymethylcellulose (CMC)",66 % of control
same,T/C,"dose: 12.5 mg/kg/injection, schedule: Q01DX011 (oral), vehicle: carboxymethylcellulose (CMC)",11 % of control
same,T/C,"dose: 12.5 mg/kg/injection, schedule: Q#A X022 (ip), vehicle: carboxymethylcellulose (CMC)",8 % of control
same,T/C,"dose: 15.0 mg/kg/injection, schedule: Q01DX006 (iv), vehicle: carboxymethylcellulose (CMC)",25 % of control
same,T/C,[3],13 % of control
same,T/C,"dose: 15.0 mg/kg/injection, schedule: Q01DX011 (sc), vehicle: carboxymethylcellulose (CMC)",7 % of control
same,T/C,"dose: 15.0 mg/kg/injection, schedule: Q03DX004 (ip), vehicle: carboxymethylcellulose (CMC)",55 % of control
same,T/C,"dose: 18.75 mg/kg/injection, schedule: Q07DX002 (ip), vehicle: carboxymethylcellulose (CMC)",46 % of control
same,T/C,"dose: 25.0 mg/kg/injection, schedule: Q01DX011 (oral), vehicle: carboxymethylcellulose (CMC)",2 % of control
same,T/C,"dose: 25.0 mg/kg/injection, schedule: Q03DX004 (ip), vehicle: carboxymethylcellulose (CMC)",35 % of control
same,T/C,"dose: 37.5 mg/kg/injection, schedule: Q01DX001 (ip), vehicle: carboxymethylcellulose (CMC)",49 % of control and 66 % of control
same,T/C,"dose: 37.5 mg/kg/injection, schedule: Q07DX002 (ip), vehicle: carboxymethylcellulose (CMC)",16 % of control
same,T/C,[6],3 % of control
same,T/C,"dose: 50.0 mg/kg/injection, schedule: Q01DX011 (ip), vehicle: methylcellulose (MC)",5 % of control
same,T/C,"dose: 50.0 mg/kg/injection, schedule: Q01DX011 (sc), vehicle: carboxymethylcellulose (CMC)",1 % of control
same,T/C,"dose: 50.0 mg/kg/injection, schedule: Q03DX004 (ip), vehicle: carboxymethylcellulose (CMC)",5 % of control
same,T/C,"dose: 75.0 mg/kg/injection, schedule: Q01DX001 (ip), vehicle: carboxymethylcellulose (CMC)",18 % of control and 42 % of control
same,T/C,"dose: 75.0 mg/kg/injection, schedule: Q03DX004 (ip), vehicle: carboxymethylcellulose (CMC)",1 % of control
same,T/C,"dose: 75.0 mg/kg/injection, schedule: Q07DX002 (ip), vehicle: carboxymethylcellulose (CMC)",1 % of control
same,T/C,[7],1 % of control and 4 % of control
same,T/C,"dose: 100.0 mg/kg/injection, schedule: Q01DX011 (ip), vehicle: methylcellulose (MC)",6 % of control
same,T/C,"dose: 150.0 mg/kg/injection, schedule: Q01DX001 (ip), vehicle: carboxymethylcellulose (CMC)",24 % of control and 29 % of control
same,T/C,"dose: 150.0 mg/kg/injection, schedule: Q07DX002 (ip), vehicle: carboxymethylcellulose (CMC)",1 % of control
same,T/C,"dose: 175.0 mg/kg/injection, schedule: Q01DX001 (ip), vehicle: carboxymethylcellulose (CMC)",8 % of control and 17 % of control
same,T/C,"dose: 175.0 mg/kg/injection, schedule: Q07DX002 (ip), vehicle: carboxymethylcellulose (CMC)",4 % of control
same,T/C,"dose: 300.0 mg/kg/injection, schedule: Q01DX011 (ip), vehicle: methylcellulose (MC)",4 % of control
same,T/C,"dose: 350.0 mg/kg/injection, schedule: Q01DX001 (ip), vehicle: carboxymethylcellulose (CMC)",5 % of control and 8 % of control
O=C(CCBr)NCCCNC(=O)CCBr,T/C,"dose: 25.0 mg/kg/injection, schedule: Q01DX011 (ip), vehicle: methylcellulose (MC)",54 % of control
same,T/C,"dose: 75.0 mg/kg/injection, schedule: Q01DX011 (ip), vehicle: methylcellulose (MC)",37 % of control
CC(=O)[C@@]1(O)CC[C@H]2[C@@H]3C[C@H](C)C4=CC(=O)CC[C@]4(C)[C@H]3[C@@H](O)C[C@@]21C,T/C,"dose: 7.0 mg/kg/injection, schedule: Q01DX011 (sc), vehicle: steriod suspending solution",70 % of control
same,T/C,"dose: 8.0 mg/kg/injection, schedule: Q01DX011 (sc), vehicle: steriod suspending solution",76 % of control
same,T/C,"dose: 14.0 mg/kg/injection, schedule: Q01DX011 (sc), vehicle: steriod suspending solution",54 % of control
same,T/C,"dose: 16.0 mg/kg/injection, schedule: Q01DX011 (sc), vehicle: steriod suspending solution",76 % of control
same,T/C,"dose: 450.0 mg/kg/injection, schedule: Q01DX011 (sc), vehicle: steriod suspending solution",87 % of control
Cn1cnc2nc[nH]c2c1=O,T/C,"dose: 31.2 mg/kg/injection, schedule: Q01DX011 (ip), vehicle: carboxymethylcellulose (CMC)",95 % of control
same,T/C,"dose: 62.5 mg/kg/injection, schedule: Q01DX011 (ip), vehicle: carboxymethylcellulose (CMC)",99 % of control
same,T/C,"dose: 125.0 mg/kg/injection, schedule: Q01DX011 (ip), vehicle: carboxymethylcellulose (CMC)",108 % of control
same,T/C,"dose: 250.0 mg/kg/injection, schedule: Q01DX011 (ip), vehicle: carboxymethylcellulose (CMC)",116 % of control
CNC(=O)NO,T/C,"dose: 50.0 mg/kg/injection, schedule: Q01DX011 (ip), vehicle: water",65 % of control
same,T/C,"dose: 100.0 mg/kg/injection, schedule: Q01DX011 (ip), vehicle: water",43 % of control
CCCc1c(Cl)nc(Cl)nc1Cl,T/C,"dose: 17.5 mg/kg/injection, schedule: Q01DX011 (ip), vehicle: carboxymethylcellulose (CMC)",54 % of control
same,T/C,"dose: 25.0 mg/kg/injection, schedule: Q01DX011 (ip), vehicle: carboxymethylcellulose (CMC)",85 % of control
same,T/C,"dose: 35.0 mg/kg/injection, schedule: Q01DX011 (ip), vehicle: carboxymethylcellulose (CMC)",104 % of control
same,T/C,[6],43 % of control
same,T/C,[7],44 % of control
Cn1c(Cl)nc2nc(Cl)nc(Cl)c21,T/C,[4],110 % of control
COc1cc(-c2ccc(Nc3ccccc3C(=O)O)c(OC)c2)ccc1N,T/C,"dose: 10.0 mg/kg/injection, schedule: Q01DX011 (ip), vehicle: saline",108 % of control
same,T/C,"dose: 20.0 mg/kg/injection, schedule: Q01DX011 (ip), vehicle: saline",36 % of control
same,T/C,"dose: 40.0 mg/kg/injection, schedule: Q01DX011 (ip), vehicle: saline",39 % of control
same,T/C,"dose: 80.0 mg/kg/injection, schedule: Q01DX011 (ip), vehicle: saline",17 % of control
CCCN(C)/N=N/c1nc[nH]c1C(N)=O,T/C,[2],91 % of control
same,T/C,[4],87 % of control
same,T/C,[5],51 % of control
same,T/C,[3],47 % of control
same,T/C,"dose: 20.0 mg/kg/injection, schedule: Q01DX011 (ip), vehicle: carboxymethylcellulose (CMC)",39 % of control
same,T/C,"dose: 30.0 mg/kg/injection, schedule: Q01DX011 (ip), vehicle: carboxymethylcellulose (CMC)",30 % of control
same,T/C,"dose: 40.0 mg/kg/injection, schedule: Q01DX011 (ip), vehicle: carboxymethylcellulose (CMC)",37 % of control
